This is an account of results in US20250186627A1, “RADIOLABELED COMPOUNDS TARGETING THE PROSTATE-SPECIFIC MEMBRANE ANTIGEN” (PROVINCIAL HEALTH SERVICES AUTHORITY, priority 2022, published 2025).

Each structure is given as a SMILES string. *1 amine or outer side, *2 acyl side, *3 side chain or, on linkers, in order; H or OH if unused. Where a SMILES comes first, the peptide text is derived from it. [ ]: non-standard residue; d: D form. The star is where a group is joined. AadUreaLys(Nε) = O=C(O)CCC[C@H](NC(=O)N[C@@H](CCCCN*)C(=O)O)C(=O)O; X4 = O=C(N[C@@H](CCCCN*)C(=O)O)N[C@@H](C[C@@H](F)C(=O)O)C(=O)O; Butanoyl(4-(4-NO2Ph)) = O=C(CCCc1ccc([N+](=O)[O-])cc1)*; DOTA = O=C(O)CN1CCN(CC(=O)O)CCN(CC(=O)*)CCN(CC(=O)O)CC1; EuK = O=C(O)CC[C@H](NC(=O)N[C@@H](CCCCN*)C(=O)O)C(=O)O; Ala(9-anthryl) = N[C@@H](Cc1c2ccccc2cc2ccccc12)C(=O)O; Butanoyl(4-(4-MeO-phenyl)) = COc1ccc(CCCC(=O)*)cc1; X1 = O=C(C1CCC(CN[*:1])CC1)[*:2]; X3 = O=C(C1CCC(N[*:1])CC1)[*:2]

T2 sequence (P02768 25-609): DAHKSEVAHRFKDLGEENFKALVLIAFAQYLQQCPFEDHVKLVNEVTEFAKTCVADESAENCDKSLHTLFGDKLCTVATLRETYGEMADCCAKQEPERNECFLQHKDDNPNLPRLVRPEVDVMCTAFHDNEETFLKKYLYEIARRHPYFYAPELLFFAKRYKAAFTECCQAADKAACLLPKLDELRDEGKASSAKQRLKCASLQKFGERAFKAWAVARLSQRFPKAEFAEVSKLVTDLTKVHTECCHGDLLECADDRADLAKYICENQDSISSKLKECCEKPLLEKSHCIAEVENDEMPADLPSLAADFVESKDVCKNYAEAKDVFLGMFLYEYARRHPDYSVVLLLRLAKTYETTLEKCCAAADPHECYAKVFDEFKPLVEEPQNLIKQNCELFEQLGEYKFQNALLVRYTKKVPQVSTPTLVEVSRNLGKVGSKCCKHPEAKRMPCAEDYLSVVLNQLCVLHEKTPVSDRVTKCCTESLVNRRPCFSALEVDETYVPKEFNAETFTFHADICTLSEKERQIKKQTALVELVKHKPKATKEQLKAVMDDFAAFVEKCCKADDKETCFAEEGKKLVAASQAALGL

The target in the first experiment is T1, PSMA (Homo sapiens, UniProt Q04609).
T1 construct: endogenous in cells; host or cells: LNCaP cells
T1 sequence (Q04609 whole entry): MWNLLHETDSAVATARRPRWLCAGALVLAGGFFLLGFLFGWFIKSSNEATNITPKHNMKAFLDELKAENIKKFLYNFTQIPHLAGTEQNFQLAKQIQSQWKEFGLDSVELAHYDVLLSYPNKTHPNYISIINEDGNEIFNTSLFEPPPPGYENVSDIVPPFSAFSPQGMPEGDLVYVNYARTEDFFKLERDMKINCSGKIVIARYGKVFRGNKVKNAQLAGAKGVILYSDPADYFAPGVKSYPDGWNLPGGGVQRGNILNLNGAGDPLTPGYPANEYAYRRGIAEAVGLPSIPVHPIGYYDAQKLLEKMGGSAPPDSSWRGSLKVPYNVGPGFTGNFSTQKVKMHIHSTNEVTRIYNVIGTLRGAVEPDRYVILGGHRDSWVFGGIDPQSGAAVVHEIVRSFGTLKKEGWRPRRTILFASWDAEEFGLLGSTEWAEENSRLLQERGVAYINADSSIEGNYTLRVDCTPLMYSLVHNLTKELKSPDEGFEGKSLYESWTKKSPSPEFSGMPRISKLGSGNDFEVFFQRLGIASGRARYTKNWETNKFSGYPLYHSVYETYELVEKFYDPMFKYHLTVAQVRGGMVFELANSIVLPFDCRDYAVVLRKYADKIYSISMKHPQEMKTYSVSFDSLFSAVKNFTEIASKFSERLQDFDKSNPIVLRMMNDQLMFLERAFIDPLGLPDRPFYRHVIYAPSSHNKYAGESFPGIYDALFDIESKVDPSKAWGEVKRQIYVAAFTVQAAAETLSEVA
Briefly: In vitro PSMA competitive binding assay, LNCaP cells, [18F]DCFPyL radioligand. The following applies: [18F]DCFPyL 0.1 nM, read-out: PSMA binding affinity (Ki). The protocol: Inhibition constants (Ki) to PSMA were measured by in vitro competition binding assays using [^18F]DCFPyL as the radioligand. LNCaP cells which were plated onto a 24-well poly-D-lysine coated plate for 48 h (400,000/well). Growth medium was removed and replaced with HEPES buffered saline (50 mM HEPES, pH 7.5, 0.9% sodium chloride). After 1 h, [^18F]DCFPyL (0.1 nM) was added to each well (in triplicate) containing varied concentrations ([…]) of tested compounds The assay mixtures were incubated for 1 h at 37° C. with gentle agitation followed by two washes with cold HEPES buffered saline. A trypsin solution (0.25%, 400 μL) was then added to each well to harvest the cells. Radioactivity was measured by gamma counting and Ki values calculated using the ‘one site—fit Ki’ built-in model in Prism 8 (GraphPad).
Broadly, the Ki is a dissociation constant, usually derived from enzyme kinetics or from competition with a known ligand. With `COc1ccc(CCCC(=O)NCC(=O)N[C@@H](CCCCNC(=O)CN2CCN(CC(=O)O)CCN(CC(=O)O)CCN(CC(=O)O)CC2)C(=O)NCC(=O)NCC2CCC(C(=O)N[C@@H](Cc3c4ccccc4cc4ccccc34)C(=O)NCCCC[C@H](NC(=O)N[C@@H](CCCC(=O)O)C(=O)O)C(=O)O)CC2)cc1` (stereo partly shown) [CCZ02009] ({Butanoyl(4-(4-MeO-phenyl))}-GK(DOTA)G[X1][Ala(9-anthryl)]-{AadUreaLys(Nε)}), the Ki is 0.12 ± 0.02 nM.

As for `O=C(O)CCC[C@H](NC(=O)N[C@@H](CCCCNC(=O)[C@H](Cc1c2ccccc2cc2ccccc12)NC(=O)C1CCC(NC(=O)CN2CCN(CC(=O)O)CCN(CC(=O)O)CCN(CC(=O)O)CC2)CC1)C(=O)O)C(=O)O` (stereo partly shown) [CCZ02013], the inhibitory constant (Ki) amounted to 1.53 ± 0.21 nM.

Turning to `COc1ccc(CCCC(=O)NCC(=O)N[C@@H](CCCCNC(=O)CN2CCN(CC(=O)O)CCN(CC(=O)O)CCN(CC(=O)O)CC2)CC(=O)NCC2CCC(C(=O)N[C@@H](Cc3c4ccccc4cc4ccccc34)C(=O)NCCCC[C@H](NC(=O)N[C@@H](CCCC(=O)O)C(=O)O)C(=O)O)CC2)cc1` (stereo partly shown) [CCZ02015], the Ki is 1.09 ± 0.3 nM.

On to `O=C(O)CCC[C@H](NC(=O)N[C@@H](CCCCNC(=O)[C@H](Cc1c2ccccc2cc2ccccc12)NC(=O)C1CCC(NC(=O)CNC(=O)[C@H](CCCCNC(=O)CN2CCN(CC(=O)O)CCN(CC(=O)O)CCN(CC(=O)O)CC2)NC(=O)CNC(=O)CCCc2ccc([N+](=O)[O-])cc2)CC1)C(=O)O)C(=O)O` (stereo partly shown) [CCZ02021] ({Butanoyl(4-(4-NO2Ph))}-GK(DOTA)G[X3][Ala(9-anthryl)]-{AadUreaLys(Nε)}), for which the Ki came to 5.71 nM.

As for `O=C(O)CCC[C@H](NC(=O)N[C@@H](CCCCNC(=O)[C@H](Cc1c2ccccc2cc2ccccc12)NC(=O)C1CCC(NC(=O)CNC(=O)C[C@H](CCCCNC(=O)CN2CCN(CC(=O)O)CCN(CC(=O)O)CCN(CC(=O)O)CC2)NC(=O)CNC(=O)CCCc2ccc([N+](=O)[O-])cc2)CC1)C(=O)O)C(=O)O` (stereo partly shown) [CCZ02022], the Ki turned out to be 11.2 nM.

Turning to `O=C(O)CC[C@H](NC(=O)N[C@@H](CCCCNC(=O)[C@H](Cc1c2ccccc2cc2ccccc12)NC(=O)C1CCC(CNC(=O)CNC(=O)[C@H](CCCCNC(=O)CN2CCN(CC(=O)O)CCN(CC(=O)O)CCN(CC(=O)O)CC2)NC(=O)CNC(=O)CCCc2ccc([N+](=O)[O-])cc2)CC1)C(=O)O)C(=O)O` (stereo partly shown) [CCZ02024] ({Butanoyl(4-(4-NO2Ph))}-GK(DOTA)G[X1][Ala(9-anthryl)]-EuK), the Ki was determined as 1.54 nM.

In the case of `O=C(O)CN1CCN(CC(=O)O)CCN(CC(=O)NCCCC[C@H](NC(=O)CNC(=O)CCCc2ccc([N+](=O)[O-])cc2)C(=O)NCC(=O)NCC2CCC(C(=O)N[C@@H](Cc3c4ccccc4cc4ccccc34)C(=O)NCCCC[C@H](NC(=O)N[C@@H](C[C@@H](F)C(=O)O)C(=O)O)C(=O)O)CC2)CCN(CC(=O)O)CC1` (stereo partly shown) [CCZ02025] ({Butanoyl(4-(4-NO2Ph))}-GK(DOTA)G[X1][Ala(9-anthryl)]-X4), the Ki was found to be 0.59 nM.

For the compound `O=C(O)CCC[C@H](NC(=O)N[C@@H](CCCCNC(=O)[C@H](Cc1c2ccccc2cc2ccccc12)NC(=O)C1CCC(CNC(=O)CNC(=O)[C@H](CCCCNC(=O)CN2CCOCCN(CC(=O)O)CCN(CC(=O)O)CCOCCN(CC(=O)O)CC2)NC(=O)CNC(=O)CCCc2ccc([N+](=O)[O-])cc2)CC1)C(=O)O)C(=O)O` (stereo partly shown) [CCZ02034], the Ki worked out at 2.82 nM.

With `COc1ccc(CCCC(=O)NCC(=O)N[C@@H](CCCCNC(=O)CN2CCN(CC(=O)O)CCN(CC(=O)O)CCN(CC(=O)O)CC2)C(=O)NCC(=O)NCC(=O)NCC(=O)NCC(=O)NCC2CCC(C(=O)N[C@@H](Cc3c4ccccc4cc4ccccc34)C(=O)NCCCC[C@H](NC(=O)N[C@@H](CCCC(=O)O)C(=O)O)C(=O)O)CC2)cc1` (stereo partly shown) [CCZ02059] ({Butanoyl(4-(4-MeO-phenyl))}-GK(DOTA)GGGG[X1][Ala(9-anthryl)]-{AadUreaLys(Nε)}), the Ki amounted to 10.8 ± 3.28 nM.

As for `COc1ccc(CCCC(=O)NCC(=O)N[C@@H](CCCCNC(=O)CN2CCN(CC(=O)O)CCN(CC(=O)O)CCN(CC(=O)O)CC2)C(=O)NCC(=O)NCC(=O)NCC2CCC(C(=O)N[C@@H](Cc3c4ccccc4cc4ccccc34)C(=O)NCCCC[C@H](NC(=O)N[C@@H](CCCC(=O)O)C(=O)O)C(=O)O)CC2)cc1` (stereo partly shown) [CCZ02060] ({Butanoyl(4-(4-MeO-phenyl))}-GK(DOTA)GG[X1][Ala(9-anthryl)]-{AadUreaLys(Nε)}), the Ki worked out at 1.09 ± 0.19 nM.

As for `COc1ccc(CCCC(=O)NCC(=O)N[C@@H](CCCCNC(=O)CN2CCN(CC(=O)O)CCN(CC(=O)O)CCN(CC(=O)O)CC2)C(=O)NCC2CCC(C(=O)N[C@@H](Cc3c4ccccc4cc4ccccc34)C(=O)NCCCC[C@H](NC(=O)N[C@@H](CCCC(=O)O)C(=O)O)C(=O)O)CC2)cc1` (stereo partly shown) [HTK03170, reference compound], the Ki was 1.53 ± 0.33 nM.

A further experiment has as its target T2, Human serum albumin (Homo sapiens, UniProt P02768).
T2 construct: purchased Sovicell
Put plainly: Human serum albumin binding assay (Transil HSA binding kit). The settings on record: read-out: Human albumin binding affinity (Kd). The protocol:
Human serum albumin binding assay was performed using Transil HSA binding kit (Sovicell) according to manufacturer's recommended procedures.
In general, Kd refers to the constant that tells how readily two partners part at equilibrium. With `COc1ccc(CCCC(=O)NCC(=O)N[C@@H](CCCCNC(=O)CN2CCN(CC(=O)O)CCN(CC(=O)O)CCN(CC(=O)O)CC2)C(=O)NCC(=O)NCC2CCC(C(=O)N[C@@H](Cc3c4ccccc4cc4ccccc34)C(=O)NCCCC[C@H](NC(=O)N[C@@H](CCCC(=O)O)C(=O)O)C(=O)O)CC2)cc1` (stereo partly shown) [CCZ02009] ({Butanoyl(4-(4-MeO-phenyl))}-GK(DOTA)G[X1][Ala(9-anthryl)]-{AadUreaLys(Nε)}), the Kd stood at 64900 ± 2200 nM.

For `COc1ccc(CCCC(=O)NCC(=O)N[C@@H](CCCCNC(=O)CN2CCN(CC(=O)O)CCN(CC(=O)O)CCN(CC(=O)O)CC2)C(=O)NCC2CCC(C(=O)N[C@@H](Cc3c4ccccc4cc4ccccc34)C(=O)NCCCC[C@H](NC(=O)N[C@@H](CCCC(=O)O)C(=O)O)C(=O)O)CC2)cc1` (stereo partly shown) [HTK03170, reference compound], the Kd came to 70100 ± 3200 nM.
